Structures can show the parent of a compound that is named as a salt.
Target: human Fab of κ-type (Homo sapiens, UniProt P01834+P01857)
Assay: STD NMR screening (1D saturation transfer difference) for binding to antibody
Design: key: 0 no; 1 weak; 2 strong signal
Conditions: 0.5 mM ligand; for NMR signal conc 2: 100 nM antibody; for NMR signal conc 1: 500 nM antibody, 298 K; for NMR signal conc 3: 20 nM antibody
Protocol: All NMR experiments were performed at 298 K on a Bruker Avance 500 MHz spectrometer. The 1D saturation transfer difference method (STD NMR) was used as screening assay (Mayer M. and Meyer B. 1999. Characterization of Ligand Binding by Saturation Transfer Difference NMR Spectroscopy. Angew. Chem., Int. Ed. 38: 1784-1788) using several antibody concentrations in order to differentiate between compounds with different binding strength (Peng J. W., Lepre C. A., Fejzo J., Abdul-Manan N. and Moore J. M. 2001. Nuclear Magnetic Resonance-Based Approaches for Lead Generation in Drug Discovery. Methods in Enzymology. 338: 202-230). The antibody used was a human Fab of κ-type. In all cases ligands were tested one-by-one. On-resonance irradiation was set at 0 ppm and off-resonance irradiation was set at −40 ppm. Irradiation time in each scan was 2 s and 16 K data points were collected with 1024 scans in total. Compounds for testing were dissolved in DMSOd6 to a concentration of 50 mM and 5 μL of the concentrated ligand solution was added to 495 μL buffer solution. The samples thus consisted of 0.5 mM ligand, 20 mM phosphate buffer, 100 mM NaCl and […] in D2O at pD 7.5, uncorrected reading on pH-meter.
Compounds were initially tested for binding with 0.5 μM antibody. Interesting ligands were further tested with protein concentrations of 100 or 20 nM. A one-dimensional ^1H-spectrum was acquired first and subsequently a saturation transfer difference (STD) spectrum was acquired. Each analysis took 60 minutes on the spectrometer. […] The analysis was setup for automation so that several samples could be analysed over night (usually 10-15 samples/night).
As many as 46 of the virtual screening hits were tested with NMR according to the procedure described above. The results from NMR screening together with additional compound data are compiled in Table 1 below. In total 24 compounds gave a positive result in the first round with the highest antibody concentration (500 nM). These 24 compounds were subjected to a second round with an antibody concentration of 100 nM. The 4 compounds showing the strongest signal in the second round were tested for binding in a third round with 20 nM antibody. Three of the compounds in the third round gave a positive result and where thus designated as the strongest binders to the antibody out of the 46 tested compounds.

Chain of human Fab of κ-type (P01857 with tags, fused parts or gaps, other chains not shown): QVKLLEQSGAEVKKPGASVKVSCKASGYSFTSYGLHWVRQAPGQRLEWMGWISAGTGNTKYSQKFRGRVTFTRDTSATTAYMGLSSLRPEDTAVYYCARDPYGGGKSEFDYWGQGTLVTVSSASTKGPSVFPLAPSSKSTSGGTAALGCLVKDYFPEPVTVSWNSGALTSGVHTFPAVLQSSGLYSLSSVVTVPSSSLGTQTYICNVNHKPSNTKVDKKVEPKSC

Compound | NMR signal conc 2 | NMR signal conc 1 | NMR signal conc 3
CC(C)=CC1=C(O)C(=O)c2ccccc2C1=O [AB_0001040, 2-hydroxy-3-(2-methyl-1-propenyl)-1,4-naphthoquinone] | 1 | 1 | 
O=C(COc1ccc2ccccc2c1)ON1C(=O)CCC1=O [AB_0001230, (2-naphthoxy)acetic acid, n-hydroxysuccinimide ester] |  | 0 | 
CCn1ccnc1CC1COc2ccccc2O1 (centres unmarked) [AB_0001070, imiloxan hydrochloride] | 1 | 1 | 
OCC(Oc1ccccc1)c1ccccc1 (centres unmarked) [AB_0000810, 2-phenoxy-2-phenyl-1-ethanol] | 1 | 2 | 
COC(=O)c1ccc2ccccc2c1O [AB_0001200, methyl 1-hydroxy-2-naphthoate] | 0 | 1 | 
CCOC(=O)c1c[nH]c2ccccc2c1=O [AB_0001100, ethyl 4-oxo-1,4-dihydroquinoline-3-carboxylate] |  | 0 | 
O=C1C=C(Cl)C(=O)N1c1ccccc1 [AB_0000930, 3-chloro-1-phenyl-pyrrole-2,5-dione] |  | 0 | 
OC(CNCc1ccc(Cl)cc1Cl)C(F)(F)F (centres unmarked) [AB_0001170, 3-[(2,4-dichlorobenzyl)amino]-1,1,1-trifluoro-2-propanol] |  | 0 | 
COC(=O)C1OC1c1cc(Cl)ccc1OC (centres unmarked) [AB_0001240, methyl 3-(5-chloro-2-methoxyphenyl)-2,3-epoxypropionate] | 1 | 1 | 
COc1ccc(CC(C)=O)cc1Br [AB_0000910, 3-bromo-4-methoxyphenylacetone] | 2 | 2 | 0
N#CCc1ccc(C(=O)c2ccccc2F)s1 [AB_0001010, 2-[5-(2-fluorobenzoyl)-2-thienyl]acetonitrile] | 2 | 2 | 2
O=C(Nc1ccc(F)cc1)Oc1noc(-c2ccccc2)n1 [AB_0000740, 5-phenyl-1,2,4-oxadiazol-3-yl n-(4-fluorophenyl)carbamate] |  | 0 | 
O=C(c1cccs1)c1cnc2ccccn2c1=O [AB_0001300, 3-(2-thienylcarbonyl)-4h-pyrido[1,2-a]pyrimidin-4-one] | 0 | 1 | 
O=Cc1cccc(C(F)(F)F)c1Cl [AB_0001030, 2-chloro-3-(trifluoromethyl)benzaldehyde] | 0 | 1 | 
c1ccc(-c2nnc(-c3ccccn3)nn2)nc1 [AB_0000700, 3,6-di-2-pyridyl-1,2,4,5-tetrazine] |  | 0 | 
CC1=NN(c2cccc(Cl)c2)C(=O)C1 [AB_0000530, 1-(3-chlorophenyl)-3-methyl-2-pyrazolin-5-one] |  | 0 | 
O=C(O)c1ccnn(-c2ccccc2)c1=O [AB_0001180, 3-oxo-2-phenyl-2,3-dihydro-4-pyridazinecarboxylic acid] |  | 0 | 
CCCCc1c(O)nc2ccccn2c1=O [AB_0000990, 3-butyl-2-hydroxy-4h-pyrido[1,2-a]pyrimidin-4-one] |  | 0 | 
O=C1C(=O)N(c2ccccc2)C(=O)N1c1ccccc1 [AB_0000540, 1,3-diphenylparabanic acid] |  | 0 | 
CN(C)C(=O)N(C)c1ccc(Cl)c(Cl)c1 [AB_0001250, 1-(3,4-dichlorophenyl)-1,3,3-trimethylurea] | 2 | 2 | 1
CC1CN=C(SCc2ccccc2)N1.Cl (centres unmarked) [AB_0001080, 2-(benzylthio)-5-methyl-4,5-dihydro-1h-imidazol-3-ium chloride] |  | 0 | 
Clc1ccc(OCc2noc(CSc3ccccn3)n2)cc1 [AB_0001290, 3-[(4-chlorophenoxy)methyl]-5-[(2-pyridylthio)methyl]-1,2,4-oxadiazole] | 1 | 2 | 
O=C1c2ccncc2C(=O)N1c1ccc(Cl)cc1 [AB_0000610, 2-(4-chlorophenyl)-2,3-dihydro-1h-pyrrolo[3,4-c]pyridine-1,3-dione] |  | 0 | 

Compound | NMR signal conc 2 | NMR signal conc 1 | NMR signal conc 3
OC(CNCc1ccc(Cl)cc1)CSc1ccccc1 (centres unmarked) [AB_0001270, 1-[(4-chlorobenzyl)amino]-3-(phenylthio)propan-2-ol] | 0 | 1 | 
c1ccc(-c2nnc3ccccc3n2)cc1 [AB_0000600, 3-phenyl-1,2,4-benzotriazine] | 1 | 1 | 
Cc1cc(C)nc(SCC(=O)Nc2ccc(F)c(Cl)c2)n1 [AB_0000580, n1-(3-chloro-4-fluorophenyl)-2-[(4,6-dimethylpyrimidin-2-yl)thio]acetamide] | 0 | 1 | 
S=C(Oc1ccccn1)c1csc(C2COc3ccccc3O2)n1 (centres unmarked) [AB_0001260, 2-pyridyl 2-(2,3-dihydro-1,4-benzodioxin-2-yl)-1,3-thiazole-4-carbothioate] |  | 0 | 
Fc1cc(F)cc(Cc2nc(-c3cccs3)no2)c1 [AB_0001020, 5-(3,5-difluorobenzyl)-3-(2-thienyl)-1,2,4-oxadiazole] | 0 | 1 | 
O=C(Cc1ncon1)Nc1ccc(F)cc1F [AB_0000690, n1-(2,4-difluorophenyl)-2-(1,2,4-oxadiazol-3-yl)acetamide] |  | 0 | 
O=C1C(=Cc2ccccc2)C(=O)c2ccccc21 [AB_0000730, 2-benzylidene-1,3-indandione] |  | 0 | 
O=C1C=CC(=O)N1c1cccc(Cl)c1 [AB_0001090, n-(3-chlorophenyl)-maleimide] | 0 | 1 | 
O=C1SC(Br)C(=O)N1c1ccccc1 (centres unmarked) [AB_0000880, 5-bromo-3-phenyl-thiazolidine-2,4-dione] |  | 0 | 
OC(CNCc1ccccc1)C(F)(F)F (centres unmarked) [AB_0001000, 3-(benzylamino)-1,1,1-trifluoro-2-propanol] | 0 | 1 | 
O=C(c1ccc2ccccc2c1)n1ccnc1 [AB_0000900, 1-(2-naphthoyl)imidazole] |  | 0 | 
c1ccc(CCn2cc(-c3ccncc3)cn2)cc1 [AB_0001190, 4-[1-(2-phenylethyl)-(1h)-pyrazol-4-yl]pyridine] | 0 | 2 | 
CC1(C)CC(=O)c2sc(NC(=O)c3cccnc3)nc2C1 [AB_0000750, n-(5,5-dimethyl-7-oxo-4,5,6,7-tetrahydro-benzothiazol-2-yl)-nicotinamide] |  | 0 | 
CSCCNC(=O)c1nc2ccccc2c(=O)n1N [AB_0001130, 3-amino-n-[2-(methylthio)ethyl]-4-oxo-3,4-dihydroquinazoline-2-carboxamide] |  | 0 | 
O=C(Cc1ncon1)Nc1ccc(F)c(F)c1F [AB_0000630, n1-(2,3,4-trifluorophenyl)-2-(1,2,4-oxadiazol-3-yl)acetamide] |  | 0 | 
N=c1sccn1CC(=O)c1ccc2ccccc2c1 [AB_0001060, 2-(2-imino-thiazol-3-yl)-1-naphthalen-2-yl-ethanone] | 0 | 2 | 
O=C(CC1OC(=O)c2ccccc21)c1ccccn1 (centres unmarked) [AB_0000790, 3-[2-oxo-2-(2-pyridyl)ethyl]-1,3-dihydroisobenzofuran-1-one] |  | 0 | 
Clc1ccc(COn2ccnc2)cc1Cl [AB_0001150, 1-[(3,4-dichlorobenzyl)oxy]-1h-imidazole] | 0 | 2 | 
COC(=O)NC(=O)c1nc(-c2ccccc2)c(C)o1 [AB_0000670, methyl n-[(5-methyl-4-phenyl-1,3-oxazol-2-yl)carbonyl]carbamate] | 0 | 2 | 
O=C(c1ccccn1)C(O)c1ccccn1 (stereo not drawn) [AB_0000510, alpha-pyridoin] |  | 0 | 
FC(F)(F)c1cccc(-n2ccnc2)c1 [AB_0001220, 1-(3-trifluoromethylphenyl)imidazole] | 0 | 2 | 
Sc1nnc(-c2csc(-c3ccccc3)n2)o1 [AB_0000760, 5-(2-phenyl-1,3-thiazol-4-yl)-1,3,4-oxadiazol-2-ylhydrosulfide] | 0 | 1 | 
